Target: T1, serotonin 5-HT6 receptor subtype (Homo sapiens, UniProt P50406)
T1 construct: host or cells: CHO-Dukx-A2 cells, clone 50-7
Assay: 5-HT6 binding affinity ([3H]-LSD SPA binding)
Conditions: CHO-Dukx-A2 cells expressing 5-HT6 receptor (clone 50-7); 3 nM [3H]-LSD; PVT WGA SPA beads; Ki by Cheng-Prusoff; read-out: 5-HT6 binding Ki

T1 sequence (P50406 whole entry): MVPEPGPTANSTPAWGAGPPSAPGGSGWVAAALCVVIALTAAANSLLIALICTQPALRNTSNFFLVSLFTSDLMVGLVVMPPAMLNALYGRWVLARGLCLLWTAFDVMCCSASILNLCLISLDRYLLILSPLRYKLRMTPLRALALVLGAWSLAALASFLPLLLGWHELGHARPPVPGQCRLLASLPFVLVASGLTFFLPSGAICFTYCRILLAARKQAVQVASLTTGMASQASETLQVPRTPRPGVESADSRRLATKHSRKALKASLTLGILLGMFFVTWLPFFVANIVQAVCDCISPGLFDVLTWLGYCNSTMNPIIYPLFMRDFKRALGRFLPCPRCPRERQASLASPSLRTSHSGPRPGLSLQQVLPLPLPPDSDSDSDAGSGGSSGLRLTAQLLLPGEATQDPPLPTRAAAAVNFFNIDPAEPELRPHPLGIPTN

Row | Ki [nM] | SMILES
1 | 0.53 | Cc1nc2c(N3CCNCC3)cccc2n1S(=O)(=O)c1ccccc1 [Example 5, 2-methyl-1-(phenylsulfonyl)-4-piperazin-1-yl-1H-benzimidazole]

Same assay, conditions: read-out: 5-HT6 binding Ki

Row | Ki [nM] | SMILES
2 | 0.982 | Cc1nc2c(N3CCNCC3)cccc2n1S(=O)(=O)c1cccc(C(F)(F)F)c1 [Example 49, 2-methyl-4-piperazin-1-yl-1-{[3-(trifluoromethyl)phenyl]sulfonyl}-1H-benzimidazole]
3 | 0.165 | O=S(=O)(c1cccc2ccccc12)n1cnc2c(N3CCNCC3)cccc21 [Example 2, 1-(naphthalen-1-ylsulfonyl)-4-(piperazin-1-yl)-1H-benzo[d]imidazole]
4 | 11.7 | O=S(=O)(c1ccc(F)c(Cl)c1)n1cnc2c(N3CCNCC3)cccc21 [Example 29, 1-[(3-chloro-4-fluorophenyl)sulfonyl]-4-piperazin-1-yl-1H-benzimidazole]
5 | 6.27 | Cc1ccc(S(=O)(=O)n2c(C)nc3c(N4CCNCC4)cccc32)c2ccccc12 [Example 51, 2-methyl-1-[(4-methyl-1-naphthyl)sulfonyl]-4-piperazin-1-yl-1H-benzimidazole]
6 | 0.738 | O=S(=O)(c1ccccc1)n1cnc2c(N3CCNCC3)cc(F)cc21 [Example 103, 6-fluoro-1-(phenylsulfonyl)-4-piperazin-1-yl-1H-benzimidazole]
7 | 0.498 | COc1ccc(C)cc1S(=O)(=O)n1cnc2c(N3CCNCC3)cccc21 [Example 68, 1-[(2-methoxy-5-methylphenyl)sulfonyl]-4-piperazin-1-yl-1H-benzimidazole]
8 | 1.38 | CCC1CN(c2cccc3c2ncn3S(=O)(=O)c2cccc3ccccc23)CCN1 (centres unmarked) [Example 118, 4-(3-ethylpiperazin-1-yl)-1-(1-naphthylsulfonyl)-1H-benzimidazole]
9 | 4.93 | COc1ccc(Br)cc1S(=O)(=O)n1cnc2c(N3CCNCC3)cccc21 [Example 66, 1-[(5-bromo-2-methoxyphenyl)sulfonyl]-4-piperazin-1-yl-1H-benzimidazole]
10 | 1.11 | Cc1cccc(S(=O)(=O)n2cnc3c(N4CCNCC4)cccc32)c1 [Example 36, 1-[(3-methylphenyl)sulfonyl]-4-piperazin-1-yl-1H-benzimidazole]
11 | 1.33 | O=S(=O)(c1cccc2ccccc12)n1cnc2c(N3CCNCC3)cc(F)cc21 [Example 101, 6-fluoro-1-(naphthalen-1-ylsulfonyl)-4-piperazin-1-yl-1H-benzimidazole]
12 | 0.485 | COc1c(F)cccc1S(=O)(=O)n1cnc2c(N3CCNCC3)cccc21 [Example 74, 1-[(3-fluoro-2-methoxyphenyl)sulfonyl]-4-piperazin-1-yl-1H-benzimidazole]
13 | 0.589 | O=S(=O)(c1cc(F)cc(Cl)c1)n1cnc2c(N3CCNCC3)cccc21 [Example 88, 1-[(3-chloro-5-fluorophenyl)sulfonyl]-4-piperazin-1-yl-1H-benzimidazole]
14 | 22.1 | O=S(=O)(c1cccc(F)c1)n1cnc2c(N3C[C@@H]4C[C@H]3CN4)cccc21 [Example 107, 4-[(1S,4S)-2,5-diazabicyclo[2.2.1]hept-2-yl]-1-[(3-fluorophenyl)sulfonyl]-1H-benzimidazole]
15 | 12.9 | COc1cc(C)c(Cl)cc1S(=O)(=O)n1cnc2c(N3CCNCC3)cccc21 [Example 90, 1-[(5-chloro-2-methoxy-4-methylphenyl)sulfonyl]-4-piperazin-1-yl-1H-benzimidazole]
16 | 1.33 | O=S(=O)(c1c(Cl)cccc1Cl)n1cnc2c(N3CCNCC3)cccc21 [Example 86, 1-[(2,6-dichlorophenyl)sulfonyl]-4-piperazin-1-yl-1H-benzimidazole]
17 | 1.08 | CC(C)c1nc2c(N3CCNCC3)cccc2n1S(=O)(=O)c1cccc(Cl)c1 [Example 60]
18 | 1.89 | COc1ccccc1S(=O)(=O)n1c(C)nc2c(N3CCNCC3)cccc21 [Example 52, 1-[(2-methoxyphenyl)sulfonyl]-2-methyl-4-piperazin-1-yl-1H-benzimidazole]
19 | 2.13 | COc1ccc(OC)c(S(=O)(=O)n2cnc3c(N4CCNCC4)cccc32)c1 [Example 67, 1-[(2,5-dimethoxyphenyl)sulfonyl]-4-piperazin-1-yl-1H-benzimidazole]
20 | 0.483 | C[C@H]1CN(c2cccc3c2ncn3S(=O)(=O)c2cccc(Cl)c2)CCN1 [Example 80, 1-[(3-chlorophenyl)sulfonyl]-4-[(3S)-3-methylpiperazin-1-yl]-1H-benzimidazole]
21 | 0.156 | COc1ccccc1S(=O)(=O)n1cnc2c(N3CCNCC3)cccc21 [Example 44, 1-[(2-methoxyphenyl)sulfonyl]-4-piperazin-1-yl-1H-benzimidazole]

Row | Ki [nM] | SMILES
22 | 1.12 | Cc1nc2c(N3CCNC(C)C3)cccc2n1S(=O)(=O)c1cccc2ccccc12 (stereo in doubt) [Example 115, 2-methyl-4-[(3R)-3-methylpiperazin-1-yl]-1-(1-naphthylsulfonyl)-1H-benzimidazole]
23 | 1.82 | COc1ccc(S(=O)(=O)n2c(C)nc3c(N4CCNCC4)cccc32)cc1 [Example 13, 1-[(4-methoxyphenyl)sulfonyl]-2-methyl-4-piperazin-1-yl-1H-benzimidazole]
24 | 9.92 | Cc1nc2c(N3C[C@@H]4C[C@H]3CN4)cccc2n1S(=O)(=O)c1cccc2ccccc12 [Example 110, 4-[(1S,4S)-2,5-diazabicyclo[2.2.1]hept-2-yl]-2-methyl-1-(naphthalen-1-ylsulfonyl)-1H-benzimidazole]
25 | 6 | Cc1nc2c(N3CCNCC3)cccc2n1S(=O)(=O)c1ccc(Cl)cc1 [Example 17, 1-[(4-chlorophenyl)sulfonyl]-2-methyl-4-piperazin-1-yl-1H-benzimidazole]
26 | 0.025 | Cc1nc2c(N3CCNCC3)cccc2n1S(=O)(=O)c1cccc2ccccc12 [Example 4, 2-methyl-1-(1-naphthylsulfonyl)-4-piperazin-1-yl-1H-benzimidazole]
27 | 25 | O=S(=O)(c1ccc(F)cc1)n1cnc2c(N3CCNCC3)cccc21 [Example 20, 1-[(4-fluorophenyl)sulfonyl]-4-piperazin-1-yl-1H-benzimidazole]
28 | 2.07 | COc1cccc(S(=O)(=O)n2c(C)nc3c(N4CCNCC4)cccc32)c1 [Example 45, 1-[(3-methoxyphenyl)sulfonyl]-2-methyl-4-piperazin-1-yl-1H-benzimidazole]
29 | 0.467 | Cc1ccc(S(=O)(=O)n2c(C)nc3c(N4CCNCC4)cccc32)cc1 [Example 31, 2-methyl-1-[(4-methylphenyl)sulfonyl]-4-piperazin-1-yl-1H-benzimidazole]
30 | 1.73 | Cc1c(Cl)cccc1S(=O)(=O)n1cnc2c(N3CCNC(C)C3)cccc21 (centres unmarked) [Example 58, 1-[(3-chloro-2-methylphenyl)sulfonyl]-4-(3-methylpiperazin-1-yl)-1H-benzimidazole]
31 | 2.94 | Cc1nc2c(N3CCNCC3)cccc2n1S(=O)(=O)c1ccccc1C(F)(F)F [Example 48, 2-methyl-4-piperazin-1-yl-1-{[2-(trifluoromethyl)phenyl]sulfonyl}-1H-benzimidazole]
32 | 4.98 | CC(C)CC1CN(c2cccc3c2ncn3S(=O)(=O)c2ccccc2Cl)CCN1 (centres unmarked) [Example 125, 1-[(2-chlorophenyl)sulfonyl]-4-(3-isobutylpiperazin-1-yl)-1H-benzimidazole]
33 | 3.8 | Cc1nc2c(N3C[C@@H](C)N[C@@H](C)C3)cccc2n1S(=O)(=O)c1cccc2ccccc12 [Example 97, 4-[(3R,5S)-3,5-dimethylpiperazin-1-yl]-2-methyl-1-(naphthalen-1-ylsulfonyl)-1H-benzimidazole]
34 | 0.305 | Cc1nc2c(N3CCNC(C)C3)cccc2n1S(=O)(=O)c1cccc2ccccc12 (stereo in doubt) [Example 117, 2-methyl-4-[(3S)-3-methylpiperazin-1-yl]-1-(1-naphthylsulfonyl)-1H-benzimidazole]
35 | 89 | O=S(=O)(c1ccc(OC(F)(F)F)cc1)n1cnc2c(N3CCNCC3)cccc21 [Example 25, 4-piperazin-1-yl-1-{[4-(trifluoromethoxy)phenyl]sulfonyl}-1H-benzimidazole]
36 | 2.15 | COc1cc(C)ccc1S(=O)(=O)n1cnc2c(N3CCNCC3)cccc21 [Example 69, 1-[(2-methoxy-4-methylphenyl)sulfonyl]-4-piperazin-1-yl-1H-benzimidazole]
37 | 0.064 | CN1CCN(c2cccc3c2ncn3S(=O)(=O)c2cccc3ccccc23)CC1 [Example 1, 4-(4-methylpiperazin-1-yl)-1-(naphthalen-1-ylsulfonyl)-1H-benzo[d]imidazole]
38 | 1.7 | Cc1nc2c(N3CCNCC3)cccc2n1S(=O)(=O)c1cccc(F)c1 [Example 26, 1-[(3-fluorophenyl)sulfonyl]-2-methyl-4-piperazin-1-yl-1H-benzimidazole]
39 | 2.44 | Cc1nc2c(N3CCNC(C)C3)cccc2n1S(=O)(=O)c1ccccc1 (centres unmarked) [Example 91, 2-methyl-4-(3-methylpiperazin-1-yl)-1-(phenylsulfonyl)-1H-benzimidazole]
40 | 2.5 | Cc1ccc(S(=O)(=O)n2cnc3c(N4CCNCC4)cccc32)cc1 [Example 27, 1-[(4-methylphenyl)sulfonyl]-4-piperazin-1-yl-1H-benzimidazole]
41 | 1.6 | Cc1ccc(S(=O)(=O)n2c(C(C)C)nc3c(N4CCNCC4)cccc32)c2ccccc12 [Example 64, 2-(1-methylethyl)-1-[(4-methylnaphthalen-1-yl)sulfonyl]-4-piperazin-1-yl-1H-benzimidazole]

Reference: US8063053B2, “1-(arylsulfonyl)-4-(piperazin-1-yl)-1H-benzimidazoles as 5-hydroxytryptamine-6 ligands” (Wyeth LLC, priority 2008, dated 2011)
